Test results from ChEMBL document CHEMBL1201862, “PubChem BioAssay data set” (2004).
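Assay format: 96-well plates, 48-hour exposure. At the GI50, growth is halved.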 The source made the active and inactive calls. No stated cut-off is given here; in the data, active = GI50 up to about 1.1 µM and inactive = higher.

Experiments:
Test in all cases: DTP human tumour cell line panel, 48 h
HOP-92 = tested on: HOP-92
MDA-N = tested on: MDA-N
CCRF-CEM = tested on: CCRF-CEM
U-251 = tested on: U-251
MDA-MB-435 = tested on: MDA-MB-435
NCI-H522 = tested on: NCI-H522
HL-60 = tested on: HL-60
UACC-62 = tested on: UACC-62
MCF7 = tested on: MCF7
KM12 = tested on: KM12
NCI-H226 = tested on: NCI-H226
SF-268 = tested on: SF-268
HCT-116 = tested on: HCT-116
A498 = tested on: A498
A549 = tested on: A549
HCT-15 = tested on: HCT-15
HT-29 = tested on: HT-29
Hs-578T = tested on: Hs-578T
SNB-19 = tested on: SNB-19
SF-539 = tested on: SF-539
NCI/ADR-RES = tested on: NCI/ADR-RES
IGROV-1 = tested on: IGROV-1
PC-3 = tested on: PC-3
LOX IMVI = tested on: LOX IMVI
SR = tested on: SR
EKVX = tested on: EKVX
OVCAR-8 = tested on: OVCAR-8
UACC-257 = tested on: UACC-257
MDA-MB-231 = tested on: MDA-MB-231
MOLT-4 = tested on: MOLT-4
OVCAR-4 = tested on: OVCAR-4
SW-620 = tested on: SW-620
SK-MEL-2 = tested on: SK-MEL-2
SNB-75 = tested on: SNB-75
UO-31 = tested on: UO-31
NCI-H23 = tested on: NCI-H23
SK-MEL-28 = tested on: SK-MEL-28
CAKI-1 = tested on: CAKI-1
SK-OV-3 = tested on: SK-OV-3
RXF 393 = tested on: RXF 393
OVCAR-5 = tested on: OVCAR-5
K562 = tested on: K562
ACHN = tested on: ACHN
T47D = tested on: T47D
SK-MEL-5 = tested on: SK-MEL-5
786-0 = tested on: 786-0
Malme-3M = tested on: Malme-3M
BT-549 = tested on: BT-549
HOP-62 = tested on: HOP-62
SF-295 = tested on: SF-295
DU-145 = tested on: DU-145
COLO 205 = tested on: COLO 205
HCC 2998 = tested on: HCC 2998
NCI-H460 = tested on: NCI-H460
TK-10 = tested on: TK-10
OVCAR-3 = tested on: OVCAR-3
SN12C = tested on: SN12C
RPMI-8226 = tested on: RPMI-8226
M14 = tested on: M14

## CCCCCCc1cc2cc(C(=O)Nc3nc(C45CC6CC(CC(C6)C4)C5)cs3)c(=O)oc2cc1O
HOP-92
  GI50: 4.93 µM (inactive)
MDA-N
  GI50: 11.4 µM (inactive)
CCRF-CEM
  GI50: 6.78 µM (inactive)
U-251
  GI50: 11.6 µM (inactive)
MDA-MB-435
  GI50: 7.13 µM (inactive)
NCI-H522
  GI50: 3.45 µM (inactive)
HL-60
  GI50: 5.18 µM (inactive)
UACC-62
  GI50: 4.65 µM (inactive)
MCF7
  GI50: 13.9 µM (inactive)
KM12
  GI50: 11 µM (inactive)
NCI-H226
  GI50: 19.1 µM (inactive)
SF-268
  GI50: 9.57 µM (inactive)
HCT-116
  GI50: 3.56 µM (inactive)
A498
  GI50: 13.6 µM (inactive)
A549
  GI50: 17.7 µM (inactive)
HCT-15
  GI50: 3.85 µM
HT-29
  GI50: 13.3 µM (inactive)
Hs-578T
  GI50: 11.8 µM (inactive)
SNB-19
  GI50: 12.3 µM (inactive)
SF-539
  GI50: 10.8 µM (inactive)
NCI/ADR-RES
  GI50: 17.3 µM (inactive)
IGROV-1
  GI50: 10.4 µM (inactive)
PC-3
  GI50: 9.27 µM (inactive)
LOX IMVI
  GI50: 11.2 µM (inactive)
SR
  GI50: 5.6 µM (inactive)
EKVX
  GI50: 17.9 µM (inactive)
OVCAR-8
  GI50: 7.11 µM (inactive)
UACC-257
  GI50: 24.6 µM (inactive)
MDA-MB-231
  GI50: 7.33 µM (inactive)
MOLT-4
  GI50: 15.1 µM (inactive)
OVCAR-4
  GI50: 11.1 µM (inactive)
SW-620
  GI50: 19 µM (inactive)
SK-MEL-2
  GI50: 12.3 µM (inactive)
SNB-75
  GI50: 7.62 µM (inactive)
UO-31
  GI50: 24.5 µM (inactive)
NCI-H23
  GI50: 5 µM (inactive)
SK-MEL-28
  GI50: 29.3 µM (inactive)
CAKI-1
  GI50: 8.81 µM (inactive)
SK-OV-3
  GI50: 20.3 µM (inactive)
RXF 393
  GI50: 8.24 µM (inactive)
OVCAR-5
  GI50: 16 µM (inactive)
K562
  GI50: 2.31 µM (inactive)
ACHN
  GI50: 4.43 µM (inactive)
T47D
  GI50: 5.68 µM (inactive)
SK-MEL-5
  GI50: 11.9 µM (inactive)
786-0
  GI50: 12.1 µM (inactive)
Malme-3M
  GI50: 19.7 µM (inactive)
BT-549
  GI50: 23.8 µM (inactive)
HOP-62
  GI50: 18.1 µM (inactive)
SF-295
  GI50: 4.06 µM (inactive)
DU-145
  GI50: 22.1 µM (inactive)
COLO 205
  GI50: 16.7 µM (inactive)
HCC 2998
  GI50: 8.15 µM (inactive)
NCI-H460
  GI50: 5.16 µM (inactive)
TK-10
  GI50: 11.3 µM (inactive)
OVCAR-3
  GI50: 13.1 µM (inactive)
SN12C
  GI50: 5.53 µM (inactive)
RPMI-8226
  GI50: 11.2 µM (inactive)

## CC1=NC(=O)C(C)(c2ccccc2)N1CCc1ccccc1 (stereo not given)
HOP-92
  GI50: 16.9 µM (inactive)
MDA-N
  GI50: 36.3 µM (inactive)
CCRF-CEM
  GI50: 36.2 µM (inactive)
U-251
  GI50: > 100 µM (inactive)
MDA-MB-435
  GI50: 75 µM (inactive)
NCI-H522
  GI50: > 100 µM (inactive)
HL-60
  GI50: 51.5 µM (inactive)
UACC-62
  GI50: 44 µM (inactive)
MCF7
  GI50: 55.1 µM (inactive)
KM12
  GI50: 44.3 µM (inactive)
NCI-H226
  GI50: 42.7 µM (inactive)
SF-268
  GI50: > 100 µM (inactive)
M14
  GI50: > 100 µM (inactive)
HCT-116
  GI50: 28 µM (inactive)
A498
  GI50: 21.7 µM (inactive)
A549
  GI50: 27.3 µM (inactive)
HCT-15
  GI50: 35.2 µM
HT-29
  GI50: 26.5 µM (inactive)
Hs-578T
  GI50: > 100 µM (inactive)
SNB-19
  GI50: > 100 µM (inactive)
SF-539
  GI50: 85.3 µM (inactive)
NCI/ADR-RES
  GI50: 67.9 µM (inactive)
IGROV-1
  GI50: 57.8 µM (inactive)
PC-3
  GI50: 44.7 µM (inactive)
LOX IMVI
  GI50: 58.7 µM (inactive)
SR
  GI50: 32 µM (inactive)
EKVX
  GI50: > 100 µM (inactive)
OVCAR-8
  GI50: > 100 µM (inactive)
UACC-257
  GI50: 72.9 µM (inactive)
MDA-MB-231
  GI50: 67.6 µM (inactive)
MOLT-4
  GI50: 15.9 µM (inactive)
OVCAR-4
  GI50: 25.6 µM (inactive)
SW-620
  GI50: 61.8 µM (inactive)
SK-MEL-2
  GI50: > 100 µM (inactive)
SNB-75
  GI50: 16.5 µM (inactive)
UO-31
  GI50: > 100 µM (inactive)
NCI-H23
  GI50: > 100 µM (inactive)
CAKI-1
  GI50: > 100 µM (inactive)
SK-OV-3
  GI50: > 100 µM (inactive)
RXF 393
  GI50: 24.7 µM (inactive)
OVCAR-5
  GI50: > 100 µM (inactive)
K562
  GI50: 34.8 µM (inactive)
ACHN
  GI50: > 100 µM (inactive)
T47D
  GI50: 22.3 µM (inactive)
SK-MEL-5
  GI50: 27 µM (inactive)
786-0
  GI50: > 100 µM (inactive)
Malme-3M
  GI50: > 100 µM (inactive)
BT-549
  GI50: > 100 µM (inactive)
HOP-62
  GI50: > 100 µM (inactive)
SF-295
  GI50: 38.5 µM (inactive)
DU-145
  GI50: > 100 µM (inactive)
COLO 205
  GI50: 27.4 µM (inactive)
HCC 2998
  GI50: 27.4 µM (inactive)
TK-10
  GI50: > 100 µM (inactive)
OVCAR-3
  GI50: 11.1 µM (inactive)
SN12C
  GI50: > 100 µM (inactive)
RPMI-8226
  GI50: 63.1 µM (inactive)
